Test systems include Acinetobacter baumannii; Escherichia coli K-12; Escherichia coli D31; Serratia marcescens; Pseudomonas aeruginosa; Bacillus subtilis; Shigella dysenteriae; Candida albicans; Proteus mirabilis; Salmonella typhimurium; Klebsiella pneumoniae; Micrococcus luteus; Escherichia coli.
Common to all, as to test: ≥ marks a high value that may be exact or a test limit, other limits are often not marked, values filed in µg/mL are converted to µM
Assay [1] concerns Enterococcus faecalis NCTC 12697.
For assay [2], the system named is Escherichia coli NCTC 10418.
Assay [3] concerns Pseudomonas aeruginosa ATCC 27853.
Assay [4] has as its system Staphylococcus aureus NCTC 12493.
Assay [5] relates to Candida albicans NCYC 1467.
In assay [6] the test system is Klebsiella pneumoniae ATCC 43816.
The test system of assay [7] is Staphylococcus aureus NCTC 10788.
The subject of assay [8] is Candida albicans ATCC 10231.
Assay [9] has as its system Staphylococcus aureus ATCC 25923.
Assay [10] deals with Acinetobacter baumannii NM35.
Assay [11] concerns Pseudomonas aeruginosa ATCC 15442.
The subject of assay [12] is Acinetobacter baumannii NM124.
For assay [13], the system named is Acinetobacter baumannii NM109.
The test system of assay [14] is Streptococcus mutans ATCC 25175.
Assay [15] deals with Escherichia coli ATCC 25726.
Assay [16] deals with Staphylococcus aureus USA 300.
Assay [17] relates to Acinetobacter baumannii NM75.
Assay [18] concerns Acinetobacter baumannii NM8.
For assay [19], the system named is Candida albicans ATCC 90028.
The subject of assay [20] is Micrococcus luteus DSM 20030.
The subject of assay [21] is Staphylococcus epidermidis RP62A/1.
For assay [22], the system named is Klebsiella pneumoniae ATCC 700603.
Assay [23] concerns Stenotrophomonas maltophilia B32/4.
Assay [24] has as its system Staphylococcus epidermidis RP62A.
Assay [25] concerns Bacillus cereus ATCC 11778.
For assay [26], the system named is Escherichia coli CCT 1457.
In assay [27] the test system is Staphylococcus aureus CCT 2580.

Values after ≈ are worked out from the molar mass of the structure shown. Values joined by “and” are separate entries in the source; they are usually repeats but may differ in a detail not shown here. Equal entries are not always repeated. A value given as a limit tells only on which side of the number the result lay.

Consider `CC[C@H](C)[C@H](NC(=O)[C@H](C)NC(=O)[C@H](CO)NC(=O)[C@@H](NC(=O)[C@H](C)NC(=O)[C@H](CCCCN)NC(=O)[C@@H]1CCCN1C(=O)[C@@H](NC(=O)[C@H](CC(C)C)NC(=O)[C@H](CO)NC(=O)[C@H](CC(C)C)NC(=O)[C@@H](N)Cc1ccccc1)[C@@H](C)CC)[C@@H](C)CC)C(=O)N[C@@H](CO)C(=O)N[C@@H](C)C(=O)N[C@@H](CC(C)C)C(=O)N[C@@H](C)C(=O)N[C@@H](CC(N)=O)C(=O)N[C@@H](Cc1cnc[nH]1)C(=O)N[C@@H](Cc1ccccc1)C(N)=O` [FLSLIPKAISAISALANHF], for which the MIC is at least 64 µM in assay [1]; at least 64 µM in assay [2]; above 512 µM in assay [3]; 16 µM (≈ 32.2 µg/mL) in assay [4]; 8 µM (≈ 16.1 µg/mL) in [5]; at least 256 µM in assay [6]. In addition, the minimum inhibitory concentration (MIC) in assay [7] was 4 µM (≈ 8.05 µg/mL).
`CC[C@H](C)[C@H](NC(=O)CN)C(=O)N[C@@H](Cc1c[nH]c2ccccc12)C(=O)N[C@@H](CC(=O)O)C(=O)N[C@H](C(=O)N[C@H](C(=O)N[C@@H](CCCCN)C(=O)N[C@@H](CO)C(=O)N[C@@H](CCSC)C(=O)NCC(=O)N[C@@H](CCCCN)C(=O)N[C@H](C(=O)N[C@@H](Cc1ccccc1)C(=O)N[C@@H](C)C(=O)NCC(=O)N[C@@H](CCCCN)C(=O)N[C@H](C(=O)N[C@@H](CC(C)C)C(=O)N[C@@H](CCC(N)=O)C(=O)N[C@@H](CC(N)=O)C(=O)N[C@@H](CC(C)C)C(N)=O)[C@@H](C)CC)C(C)C)[C@@H](C)CC)[C@@H](C)O` [GIWDTIKSMGKVFAGKILQNL]: the MIC in assay [8] was 16 µM (≈ 37.1 µg/mL); in assay [9], 25 µM and 22.6 µM; in assay [10], 6 µM (≈ 13.9 µg/mL); in assay [11], at least 100 µM; in [12], 6 µM (≈ 13.9 µg/mL); in assay [13], 6 µM (≈ 13.9 µg/mL). Further, the minimal inhibitory concentration (MIC) was 12.5 µM (≈ 29 µg/mL) with Acinetobacter baumannii; at least 100 µM in assay [14]; 25 µM (≈ 58 µg/mL) in assay [15]; 25 µM (≈ 58 µg/mL) in assay [16]; 3 µM (≈ 6.96 µg/mL) in [17]; 25 µM (≈ 58 µg/mL) in the assay on Escherichia coli K-12. In addition, the MIC with Escherichia coli D31 is at least 32 µM; in assay [18], 6 µM (≈ 13.9 µg/mL); in [19], 12.5 µM (≈ 29 µg/mL).
Take `CC[C@H](C)[C@H](NC(=O)[C@@H](N)C(C)C)C(=O)N1CCC[C@H]1C(=O)N[C@@H](Cc1ccccc1)C(=O)N[C@H](C(=O)N[C@@H](C)C(=O)N[C@@H](CO)C(=O)N[C@H](C(=O)N[C@@H](C)C(=O)N[C@@H](C)C(=O)N[C@@H](CCC(=O)O)C(=O)N[C@@H](CCSC)C(=O)N[C@@H](CCSC)C(=O)N[C@@H](Cc1cnc[nH]1)C(=O)N[C@@H](Cc1cnc[nH]1)C(=O)N[C@H](C(=O)N[C@@H](Cc1ccc(O)cc1)C(=O)N[C@H]1CSSC[C@@H](C(=O)O)NC(=O)[C@H](CCCN=C(N)N)NC(=O)[C@H](CCCCN)NC(=O)[C@H](CO)NC(=O)[C@H](C)NC(=O)[C@H](C)NC1=O)C(C)C)C(C)C)C(C)C` [VIPFVASVAAEMMHHVYCAASKRC]: the MIC with Serratia marcescens is at least 76.3 µM; in the assay on Pseudomonas aeruginosa it was above 76.3 µM; against Bacillus subtilis it was at least 76.3 µM; against Shigella dysenteriae, at least 76.3 µM; in the assay on Candida albicans, 76.3 µM (≈ 200 µg/mL); against Proteus mirabilis, at least 76.3 µM. Also, the MIC is at least 76.3 µM against Salmonella typhimurium, above 76.3 µM in the assay on Klebsiella pneumoniae, 9.54 µM (≈ 25 µg/mL) against Micrococcus luteus and above 76.3 µM against Escherichia coli.
In turn, `CC[C@H](C)[C@H](N)C(=O)N[C@@H](CO)C(=O)N[C@@H](CCC(N)=O)C(=O)N[C@@H](CO)C(=O)N[C@@H](CC(=O)O)C(=O)N[C@@H](C)C(=O)N[C@H](C(=O)N[C@@H](CC(C)C)C(=O)N[C@@H](CO)C(=O)N[C@@H](C)C(=O)N[C@H](C(=O)N[C@@H](Cc1c[nH]c2ccccc12)C(=O)N[C@@H](CO)C(=O)NCC(=O)N[C@H](C(=O)N[C@@H](CCCCN)C(=O)N[C@@H](CO)C(=O)N[C@@H](CC(C)C)C(=O)N[C@@H](Cc1ccccc1)C(N)=O)[C@@H](C)CC)[C@@H](C)CC)[C@@H](C)CC` [ISQSDAILSAIWSGIKSLF] had a minimal inhibitory concentration (MIC) in [20] of 4 µM (≈ 8.14 µg/mL).
On to `CC[C@H](C)[C@H](N)C(=O)N[C@@H](CC(C)C)C(=O)NCC(=O)N[C@@H](CCCCN)C(=O)N[C@@H](CC(C)C)C(=O)N[C@@H](CC(C)C)C(=O)N[C@@H](CO)C(=O)N[C@H](C(=O)N[C@@H](C)C(=O)N[C@@H](C)C(=O)N[C@@H](CCCCN)C(=O)N[C@@H](CC(C)C)C(=O)N[C@@H](CC(C)C)C(=O)N[C@@H](CO)C(=O)N[C@@H](CC(N)=O)C(=O)N[C@@H](CC(C)C)C(N)=O)[C@@H](C)O` [ILGKLLSTAAKLLSNL], for which the MIC in assay [9] was 4 µM (≈ 6.62 µg/mL); in assay [21], 4 µM (≈ 6.62 µg/mL); in assay [3], 32 µM (≈ 52.9 µg/mL); in assay [22], 32 µM (≈ 52.9 µg/mL); in assay [23], at least 32 µM; in assay [15], at least 32 µM. Besides, the minimal inhibitory concentration (MIC) in [18] was determined as 8 µM (≈ 13.2 µg/mL); in assay [19], 16 µM (≈ 26.5 µg/mL); in assay [24], 4 µM (≈ 6.62 µg/mL).
As for `CC[C@H](C)[C@H](N)C(=O)N[C@@H](CC(=O)O)C(=O)N[C@@H](Cc1c[nH]c2ccccc12)C(=O)N[C@@H](CC(C)C)C(=O)N[C@@H](CCCCN)C(=O)N[C@@H](CC(C)C)C(=O)NCC(=O)N[C@@H](CCCCN)C(=O)N[C@@H](CCSC)C(=O)N[C@H](C(=O)N[C@@H](CCSC)C(=O)N[C@@H](CC(=O)O)C(=O)N[C@H](C(=O)N[C@@H](CC(C)C)C(N)=O)C(C)C)C(C)C` [IDWLKLGKMVMDVL], the minimum inhibitory concentration (MIC) in assay [11] is at least 301 µM; in assay [25] it was at least 37.3 µM; in [26], at least 37.3 µM; in assay [27], 18.7 µM (≈ 31 µg/mL).

As usually defined, the MIC is the lowest concentration that inhibits growth of the organism. A low value points to inhibition by little substance.
